The results in this text go back to ChEMBL document CHEMBL1201862, “PubChem BioAssay data set” (2004).

The target in test [1] is Induced myeloid leukemia cell differentiation protein Mcl-1 (Homo sapiens, UniProt Q07820). Nature of the test: blockers of MCL1 binding to BIM peptide – biochemical, fluorescence polarization, BIM-BH3 peptide, 1536-well, dose response (AID 2217). In general terms: In fluorescence polarisation assays a small probe gives low polarisation when free and higher when bound to something large.

Another test addresses Bcl-2-like protein 1 (Homo sapiens, UniProt Q07817). Briefly: blockers of BCLXL peptide binding – biochemical, fluorescence polarization, 1536-well, selectivity assay for MCL1 inhibitor project, dose response (AID 2218).
The target of a further test is T1, Caspase-6 (Homo sapiens, UniProt P55212).
T1 sequence (P55212 whole entry): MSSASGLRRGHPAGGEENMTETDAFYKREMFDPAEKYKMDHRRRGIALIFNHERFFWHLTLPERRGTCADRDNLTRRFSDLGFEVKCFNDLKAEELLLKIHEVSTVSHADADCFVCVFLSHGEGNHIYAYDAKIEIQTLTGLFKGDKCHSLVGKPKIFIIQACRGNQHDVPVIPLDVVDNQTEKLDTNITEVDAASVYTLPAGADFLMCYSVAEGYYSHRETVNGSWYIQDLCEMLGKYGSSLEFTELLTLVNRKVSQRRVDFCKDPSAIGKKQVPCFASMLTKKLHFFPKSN
Nature of the test: inhibition of CASP6 peptide cleavage – biochemical, VEID-R110 fluorescence, cherry-pick, dose response (AID 720632).

For test [2], the target named is T2, Carboxy-terminal domain RNA polymerase II polypeptide A small phosphatase 1 (Homo sapiens, UniProt Q9GZU7).
T2 sequence (Q9GZU7 whole entry): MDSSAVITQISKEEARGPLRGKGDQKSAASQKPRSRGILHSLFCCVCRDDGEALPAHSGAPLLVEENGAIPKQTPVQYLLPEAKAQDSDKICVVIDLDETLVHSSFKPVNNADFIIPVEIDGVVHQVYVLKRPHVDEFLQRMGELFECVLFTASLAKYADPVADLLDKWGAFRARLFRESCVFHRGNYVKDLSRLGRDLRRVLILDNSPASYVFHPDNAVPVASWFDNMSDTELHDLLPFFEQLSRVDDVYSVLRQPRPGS
Nature of the test: CTDSP1 inhibitors, concentration-response, biochemical, absorbance readout, ultra-high-throughput screen actives (AID 540297). It is filed as functional.

For test [3], the target named is T3, Bcl-2-related protein A1 (Mus musculus, UniProt Q07440). Briefly: small-molecule antagonists of Bfl-1/BH3 interaction – biochemical, TR-FRET, mouse Bfl-1, confirmation (AID 621).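 Further: TR-FRET binding of GST-Bfl-1 to FITC-labelled Bid peptide via terbium antibody.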 In general terms: Time-resolved FRET reads energy transfer from a long-lived donor to a nearby acceptor.
Test [4] addresses Protein-tyrosine kinase 2-beta (Homo sapiens, UniProt Q14289).
Test [5] addresses T3, Bcl-2-related protein A1. Briefly: displacement of Bid BH3 peptide from Bfl-1 – biochemical, fluorescence polarization, FITC-Bid, mouse, primary screen (AID 432).
For test [6], the target named is Dual specificity protein phosphatase 6 (Rattus norvegicus, UniProt Q64346). Briefly: inhibition of rat DUSP6 enzyme activity – biochemical, in vitro, primary screen (AID 425).
Test [7] deals with Tyrosine-protein phosphatase non-receptor type 7 (Homo sapiens, UniProt P35236). Nature of the test: HePTP tyrosine phosphatase activity blockers – biochemical, absorbance, leukemia target, primary screen (AID 521). It is filed as functional.
Test [8] is described as follows: Luminescence Cell-Based Dose Confirmation HTS to Identify Inhibitors of Polyadenylation. In kind it is functional.
Test [9] concerns the target T4, Estrogen receptor beta (Homo sapiens, UniProt Q92731).
The target of the next test is T5, Bcl-2-like protein 10 (Homo sapiens, UniProt Q9HD36).
T5 sequence (Q9HD36 whole entry): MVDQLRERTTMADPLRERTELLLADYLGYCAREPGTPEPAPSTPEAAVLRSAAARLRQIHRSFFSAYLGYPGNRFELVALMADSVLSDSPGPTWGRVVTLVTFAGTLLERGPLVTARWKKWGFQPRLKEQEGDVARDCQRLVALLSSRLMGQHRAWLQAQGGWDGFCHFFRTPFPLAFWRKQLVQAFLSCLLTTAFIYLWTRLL
Nature of the test: Bcl-B/TR3 peptide binding disruption – biochemical, fluorescence polarization, FITC-TR3 peptide, selectivity assay for Bfl-1 inhibitor project, primary screen (AID 748).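 Further: fluorescence polarization from a fluorescein-labelled TR3 peptide binding purified Bcl-B.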

Test [10] has as its target T4, Estrogen receptor beta. Nature of the test: blockers of SRC-3 recruitment to ERβ – biochemical, ELISA, streptavidin-HRP readout, orthogonal assay, confirmation (AID 1060). Background: An ELISA detects its analyte on a solid surface through an enzyme-linked reagent.
The target in a further test is T6, Estrogen receptor (Homo sapiens, UniProt P03372).
T6 sequence (P03372 whole entry): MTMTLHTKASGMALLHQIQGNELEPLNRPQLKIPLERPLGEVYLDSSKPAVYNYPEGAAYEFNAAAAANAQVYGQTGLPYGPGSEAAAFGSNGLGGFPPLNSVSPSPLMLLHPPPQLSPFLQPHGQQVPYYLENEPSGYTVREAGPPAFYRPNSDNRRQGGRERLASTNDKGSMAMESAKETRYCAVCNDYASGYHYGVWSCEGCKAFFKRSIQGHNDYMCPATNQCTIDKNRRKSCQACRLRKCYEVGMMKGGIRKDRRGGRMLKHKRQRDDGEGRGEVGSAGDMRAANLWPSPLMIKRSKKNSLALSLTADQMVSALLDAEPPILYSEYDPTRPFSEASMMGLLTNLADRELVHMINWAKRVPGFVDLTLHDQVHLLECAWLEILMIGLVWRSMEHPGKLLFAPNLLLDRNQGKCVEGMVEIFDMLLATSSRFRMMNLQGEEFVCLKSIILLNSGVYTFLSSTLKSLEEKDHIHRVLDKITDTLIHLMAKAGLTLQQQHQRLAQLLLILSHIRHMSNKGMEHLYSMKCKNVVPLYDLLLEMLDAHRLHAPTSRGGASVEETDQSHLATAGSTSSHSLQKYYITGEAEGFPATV

The target of test [11] is Sphingosine 1-phosphate receptor 1 (Homo sapiens, UniProt P21453). Briefly: Dose Response Cell-Based Assay for Agonists of the Sphingosine 1-Phosphate Receptor 1 (S1P1): Purchased Analogues. [Related pubchem assays: 1192, 373, 439 ]. In kind it is functional.
The target in test [12] is Sphingosine 1-phosphate receptor 2 (Homo sapiens, UniProt O95136). Nature of the test: Dose Response Cell-Based Assay for Agonists of the Sphingosine 1-Phosphate Receptor 2 (S1P2): Purchased Analogues. [Related pubchem assays: 1192, 373, 439 ]. In kind it is functional.
The target in test [13] is Sphingosine 1-phosphate receptor 3 (Homo sapiens, UniProt Q99500). Nature of the test: Dose Response Cell-Based Assay for Agonists of the Sphingosine 1-Phosphate Receptor 3 (S1P3): Purchased Analogues. [Related pubchem assays: 373, 439 ]. It is filed as functional.

Calls of active or inactive are those of the source.

T4 sequence (Q92731 whole entry): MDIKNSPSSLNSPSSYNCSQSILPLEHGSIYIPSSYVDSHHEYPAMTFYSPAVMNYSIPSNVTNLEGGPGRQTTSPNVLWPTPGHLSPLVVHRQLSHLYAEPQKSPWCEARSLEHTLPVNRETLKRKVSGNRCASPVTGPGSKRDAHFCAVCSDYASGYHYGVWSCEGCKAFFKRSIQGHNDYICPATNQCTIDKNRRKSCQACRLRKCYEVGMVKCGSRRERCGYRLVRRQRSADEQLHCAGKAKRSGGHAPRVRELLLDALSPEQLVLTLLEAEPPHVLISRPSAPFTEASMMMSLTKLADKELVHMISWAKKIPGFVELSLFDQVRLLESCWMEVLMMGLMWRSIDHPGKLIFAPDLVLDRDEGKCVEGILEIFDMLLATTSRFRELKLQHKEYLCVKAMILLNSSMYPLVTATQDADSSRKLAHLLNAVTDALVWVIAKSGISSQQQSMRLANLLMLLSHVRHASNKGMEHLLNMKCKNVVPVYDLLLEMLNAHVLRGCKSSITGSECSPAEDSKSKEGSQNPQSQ
T3 sequence (Q07440 whole entry): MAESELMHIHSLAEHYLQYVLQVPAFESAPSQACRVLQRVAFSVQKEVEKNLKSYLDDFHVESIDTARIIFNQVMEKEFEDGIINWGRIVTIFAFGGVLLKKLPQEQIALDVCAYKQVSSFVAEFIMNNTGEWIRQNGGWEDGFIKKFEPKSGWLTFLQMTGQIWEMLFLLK
Induced myeloid leukemia cell differentiation protein Mcl-1, sequence (Q07820 whole entry): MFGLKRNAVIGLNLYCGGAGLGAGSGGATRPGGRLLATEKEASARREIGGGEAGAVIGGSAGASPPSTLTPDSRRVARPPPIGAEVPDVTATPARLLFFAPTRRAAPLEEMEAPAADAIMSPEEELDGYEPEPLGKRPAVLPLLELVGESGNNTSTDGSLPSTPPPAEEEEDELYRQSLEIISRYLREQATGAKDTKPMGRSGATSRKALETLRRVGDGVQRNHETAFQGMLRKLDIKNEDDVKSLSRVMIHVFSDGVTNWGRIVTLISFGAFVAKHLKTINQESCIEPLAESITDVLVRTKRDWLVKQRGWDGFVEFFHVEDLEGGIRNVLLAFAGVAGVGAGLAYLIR
Sphingosine 1-phosphate receptor 3, sequence (Q99500 whole entry): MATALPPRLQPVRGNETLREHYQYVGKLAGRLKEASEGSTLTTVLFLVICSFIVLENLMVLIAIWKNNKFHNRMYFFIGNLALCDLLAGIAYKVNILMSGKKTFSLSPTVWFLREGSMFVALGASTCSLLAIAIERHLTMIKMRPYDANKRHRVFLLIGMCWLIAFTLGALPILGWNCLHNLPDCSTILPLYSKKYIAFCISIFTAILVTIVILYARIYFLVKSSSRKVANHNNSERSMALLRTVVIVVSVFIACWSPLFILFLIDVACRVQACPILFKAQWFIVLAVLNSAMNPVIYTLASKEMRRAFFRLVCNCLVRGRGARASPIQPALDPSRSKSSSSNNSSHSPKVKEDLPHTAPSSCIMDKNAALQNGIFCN
Sphingosine 1-phosphate receptor 1, sequence (P21453 whole entry): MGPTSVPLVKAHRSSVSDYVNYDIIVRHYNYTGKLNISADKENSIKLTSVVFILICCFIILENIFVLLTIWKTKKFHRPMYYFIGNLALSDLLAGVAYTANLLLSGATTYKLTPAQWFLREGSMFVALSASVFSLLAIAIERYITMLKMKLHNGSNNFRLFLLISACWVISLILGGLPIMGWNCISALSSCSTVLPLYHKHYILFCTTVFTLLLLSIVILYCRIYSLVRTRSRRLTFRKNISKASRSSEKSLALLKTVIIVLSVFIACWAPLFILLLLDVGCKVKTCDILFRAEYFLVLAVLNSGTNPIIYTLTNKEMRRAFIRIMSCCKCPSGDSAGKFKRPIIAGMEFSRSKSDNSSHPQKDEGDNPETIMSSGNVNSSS
Tyrosine-protein phosphatase non-receptor type 7, sequence (P35236 whole entry): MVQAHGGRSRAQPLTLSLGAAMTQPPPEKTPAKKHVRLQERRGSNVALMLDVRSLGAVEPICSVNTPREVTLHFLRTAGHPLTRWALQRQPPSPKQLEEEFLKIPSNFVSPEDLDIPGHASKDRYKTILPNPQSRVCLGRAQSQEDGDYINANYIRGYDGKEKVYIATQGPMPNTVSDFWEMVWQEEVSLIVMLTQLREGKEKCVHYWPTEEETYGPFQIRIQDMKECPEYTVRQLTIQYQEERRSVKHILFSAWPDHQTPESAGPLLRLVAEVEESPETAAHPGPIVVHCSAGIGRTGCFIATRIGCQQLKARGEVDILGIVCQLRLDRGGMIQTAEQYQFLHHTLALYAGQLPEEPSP
Dual specificity protein phosphatase 6, sequence (Q64346 whole entry): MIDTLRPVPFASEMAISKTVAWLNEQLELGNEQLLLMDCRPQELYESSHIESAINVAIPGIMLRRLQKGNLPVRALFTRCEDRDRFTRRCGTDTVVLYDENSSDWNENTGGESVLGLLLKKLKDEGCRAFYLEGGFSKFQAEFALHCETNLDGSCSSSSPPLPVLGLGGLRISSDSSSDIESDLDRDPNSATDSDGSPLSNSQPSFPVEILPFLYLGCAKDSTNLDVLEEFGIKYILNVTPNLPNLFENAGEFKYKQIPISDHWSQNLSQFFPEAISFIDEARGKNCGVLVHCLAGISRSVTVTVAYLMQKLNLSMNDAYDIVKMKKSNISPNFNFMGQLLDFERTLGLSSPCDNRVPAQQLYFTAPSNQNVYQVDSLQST
Bcl-2-like protein 1, sequence (Q07817 whole entry): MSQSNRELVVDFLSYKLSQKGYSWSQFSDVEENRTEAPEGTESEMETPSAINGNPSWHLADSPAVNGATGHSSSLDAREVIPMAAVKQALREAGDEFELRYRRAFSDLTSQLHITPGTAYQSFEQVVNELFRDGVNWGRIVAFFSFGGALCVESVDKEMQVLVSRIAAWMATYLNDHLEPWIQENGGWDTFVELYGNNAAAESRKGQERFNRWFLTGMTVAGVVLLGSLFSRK
Sphingosine 1-phosphate receptor 2, sequence (O95136 whole entry): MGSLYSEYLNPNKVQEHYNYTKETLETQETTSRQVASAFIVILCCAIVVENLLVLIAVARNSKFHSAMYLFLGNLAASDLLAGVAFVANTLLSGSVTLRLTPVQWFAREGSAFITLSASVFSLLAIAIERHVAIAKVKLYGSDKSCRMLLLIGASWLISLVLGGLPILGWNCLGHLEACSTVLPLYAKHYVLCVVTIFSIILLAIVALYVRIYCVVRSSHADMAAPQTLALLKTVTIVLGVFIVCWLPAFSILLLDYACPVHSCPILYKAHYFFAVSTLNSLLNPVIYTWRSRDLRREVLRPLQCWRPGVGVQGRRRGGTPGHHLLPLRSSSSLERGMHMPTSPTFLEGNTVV
Protein-tyrosine kinase 2-beta, sequence (Q14289 whole entry): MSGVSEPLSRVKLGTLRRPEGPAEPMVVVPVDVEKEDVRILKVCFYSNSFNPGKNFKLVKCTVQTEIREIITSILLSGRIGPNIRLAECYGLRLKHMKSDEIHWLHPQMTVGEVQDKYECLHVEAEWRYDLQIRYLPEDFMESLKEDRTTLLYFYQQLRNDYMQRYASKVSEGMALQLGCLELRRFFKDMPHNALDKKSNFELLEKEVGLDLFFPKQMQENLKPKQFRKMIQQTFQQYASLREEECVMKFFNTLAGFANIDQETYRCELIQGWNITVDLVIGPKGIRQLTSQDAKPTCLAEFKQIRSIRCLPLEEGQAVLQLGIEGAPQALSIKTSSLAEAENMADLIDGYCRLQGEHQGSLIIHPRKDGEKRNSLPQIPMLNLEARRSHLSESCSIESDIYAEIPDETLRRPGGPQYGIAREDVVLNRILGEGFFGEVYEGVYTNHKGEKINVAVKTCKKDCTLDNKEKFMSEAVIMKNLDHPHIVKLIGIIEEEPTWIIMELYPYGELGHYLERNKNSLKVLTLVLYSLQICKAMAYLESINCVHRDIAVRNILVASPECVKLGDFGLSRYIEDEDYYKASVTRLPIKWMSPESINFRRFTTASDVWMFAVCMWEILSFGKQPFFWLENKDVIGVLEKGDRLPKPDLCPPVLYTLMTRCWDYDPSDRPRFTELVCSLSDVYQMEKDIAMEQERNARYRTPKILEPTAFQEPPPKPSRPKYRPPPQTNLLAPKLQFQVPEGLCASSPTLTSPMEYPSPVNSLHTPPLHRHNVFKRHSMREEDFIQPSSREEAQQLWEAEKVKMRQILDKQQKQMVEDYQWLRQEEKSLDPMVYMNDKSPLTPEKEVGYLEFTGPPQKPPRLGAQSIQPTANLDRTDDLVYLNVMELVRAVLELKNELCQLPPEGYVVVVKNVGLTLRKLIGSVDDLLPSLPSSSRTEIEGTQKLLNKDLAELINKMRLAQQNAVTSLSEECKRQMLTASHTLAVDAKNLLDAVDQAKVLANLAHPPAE

For the molecule `Nc1ccc(S(=O)(=O)Nc2nc3ccccc3o2)cc1`, the IC50 (in [1]; at Bcl-2-like protein 1) was > 109 µM (not active) throughout. In addition, the AC50 – broadly, the concentration at which the activity in the assay is half-maximal – on Caspase-6 was 42.1 µM (active).
As for `COc1ccc2nc(O)c(-c3noc(-c4ccccc4)n3)cc2c1`, the IC50 (as a rule, the concentration at which inhibition is half-maximal) in test [2] was 7.01 µM (active); against Bcl-2-related protein A1 [3] it was > 100 µM (not active); in [4] it was > 2.57 µM (not active); on Bcl-2-related protein A1 [5], 24.6 µM (active); in [6], > 10 µM (not active); in test [7], 4.23 µM (active).
Turning to `COc1ccc(C2SCC(=O)N2c2c(C)n(C)n(-c3ccccc3)c2=O)cc1OC` (configuration not stated), the 50% effective concentration (EC50) – broadly, the midpoint of the concentration-response curve – in test [8] is > 120 µM (not active).
For the molecule `Cc1ccc(S(=O)(=O)N2CCCCC2)cc1C(=O)Nc1nc[nH]n1`, the concentration for half-maximal inhibition (IC50) on Estrogen receptor beta [9] was 8.84 µM (active); at Bcl-2-like protein 10, 27.7 µM (active); against Estrogen receptor beta [10], > 109 µM (not active); at Estrogen receptor, > 50 µM (not active).
As to `Cc1ccc(-c2cc(C(=O)N(C)C3CCCCC3)no2)cc1`, the EC50 in test [11] is 0.724 µM (active); in test [12], > 10 µM (not active); in test [13], > 50 µM (not active).
